For three compounds, IC50 results are on record in article PMC5938026 (Experimental & Molecular Medicine, 2018).

Molecules are shown by their SMILES.

Kv1.5, sequence (P19024 whole entry): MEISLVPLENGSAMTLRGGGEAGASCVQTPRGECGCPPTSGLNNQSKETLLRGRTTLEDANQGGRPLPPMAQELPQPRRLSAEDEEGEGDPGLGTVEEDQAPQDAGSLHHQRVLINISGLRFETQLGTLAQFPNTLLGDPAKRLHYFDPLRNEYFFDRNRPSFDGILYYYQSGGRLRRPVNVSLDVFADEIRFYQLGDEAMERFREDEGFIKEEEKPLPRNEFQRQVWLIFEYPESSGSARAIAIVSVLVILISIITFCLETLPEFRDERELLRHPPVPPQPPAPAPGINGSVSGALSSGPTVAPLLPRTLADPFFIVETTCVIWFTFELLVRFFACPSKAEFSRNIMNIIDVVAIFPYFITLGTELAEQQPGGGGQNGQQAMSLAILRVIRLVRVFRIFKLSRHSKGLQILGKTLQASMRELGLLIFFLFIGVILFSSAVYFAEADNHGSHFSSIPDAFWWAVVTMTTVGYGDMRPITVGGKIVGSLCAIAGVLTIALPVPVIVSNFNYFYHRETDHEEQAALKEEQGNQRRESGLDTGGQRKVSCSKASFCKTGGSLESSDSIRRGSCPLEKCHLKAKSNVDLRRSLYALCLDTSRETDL

The assay addresses Kv1.5 (Rattus norvegicus, UniProt P19024). Briefly: whole-cell patch clamp of CHO cells overexpressing Kv1.[…]. It counts as cell-based.
For the compound `C[C@@]12N[C@@H](Cc3ccccc31)c1ccccc12` [(−) MK801], the concentration for half-maximal inhibition (IC50) amounted to 157 ± 7.9 µM. The compound `CNC1(c2ccccc2Cl)CCCCC1=O` (racemic) [ketamine] registered an IC50 of 641 ± 33.2 µM. For `C[C@]12N[C@H](Cc3ccccc31)c1ccccc12` [(+) MK801] the value was 157 ± 14 µM.
